Laboratory results: PubChem BioAssay (NCI)
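Five concentrations, 48 hours, 96-well plates. The concentration for 50% growth inhibition is given as GI50. TGI: total growth inhibition.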

Experiments:
Assay in all cases: NCI tumour cell line growth inhibition, 48 h
SF-268 CNS = tested on: SF-268 CNS
IGROV1 ovarian = tested on: IGROV1 ovarian
SR leukemia = tested on: SR leukemia
BT-549 breast = tested on: BT-549 breast
M14 melanoma = tested on: M14 melanoma
SF-539 CNS = tested on: SF-539 CNS
PC-3 prostate = tested on: PC-3 prostate
HS 578T breast = tested on: HS 578T breast
K-562 leukemia = tested on: K-562 leukemia
COLO 205 colon = tested on: COLO 205 colon

Row | SMILES | GI50 (SF-268 CNS) | TGI (SF-268 CNS) | GI50 (IGROV1 ovarian) | TGI (IGROV1 ovarian) | GI50 (SR leukemia) | TGI (SR leukemia) | GI50 (BT-549 breast) | TGI (BT-549 breast) | GI50 (M14 melanoma) | TGI (M14 melanoma) | GI50 (SF-539 CNS) | TGI (SF-539 CNS) | GI50 (PC-3 prostate) | TGI (PC-3 prostate) | GI50 (HS 578T breast) | TGI (HS 578T breast) | GI50 (K-562 leukemia) | TGI (K-562 leukemia) | GI50 (COLO 205 colon) | TGI (COLO 205 colon)
1 | O=C(Nc1ccc(I)cc1F)c1cc(F)ccc1O | 0.513 µM | > 31.1 µM | 0.404 µM | > 100 µM | 0.413 µM | > 35.7 µM | 0.301 µM | 1.05 µM | 0.407 µM | 3.26 µM | 0.444 µM | 7.07 µM | 0.843 µM | 6.4 µM | 0.44 µM | 5.29 µM | 0.407 µM | > 42.1 µM | 3.88 µM | 15.6 µM
2 | CC(=O)O[C@H]1Cc2c([nH]c3ccccc23)[C@@H](c2ccc(Cl)cc2)N1C(=O)CCNC(C)(C)C | 4.21 µM | 9.24 µM | 2.19 µM | 7.77 µM | 1.09 µM | 6.11 µM | 4 µM | 8.27 µM | 2.05 µM | 6.96 µM | 4.69 µM | 9.12 µM | 3.48 µM | 8.12 µM | 3.76 µM | 13 µM | 3.08 µM | 10.1 µM | 3.47 µM | 7.7 µM
3 | O=C1c2ccccc2-c2c1c1ccccc1c(=O)n2CCCNCCO | 0.796 µM | 8.85 µM | 0.501 µM | 3.76 µM | 0.086 µM | 0.618 µM | 1.65 µM | 5.9 µM | 1.21 µM | 3 µM | 0.578 µM | 2.96 µM | 0.752 µM | 4.47 µM | 0.589 µM | 5.04 µM | 0.284 µM | 7.95 µM | 0.63 µM | 3.75 µM
4 | COC(=O)C1=C(C)NC(C)=C(C(=O)OC)C1c1ccccc1[N+](=O)[O-] | > 100 µM | > 100 µM | 57.2 µM | > 100 µM | 34.7 µM | > 100 µM | > 100 µM | > 100 µM | > 100 µM | > 100 µM | > 100 µM | > 100 µM | 50.3 µM | > 100 µM | 32.4 µM | > 100 µM | 78.8 µM | > 100 µM | 89 µM | > 100 µM
5 | CCN(CC)CCn1nc2c3c(cccc3c1=O)-c1ccccc1-2 | 2.87 µM | 21.3 µM | 2.06 µM | > 50 µM | 0.896 µM | 8.98 µM | 6.16 µM | 15.1 µM | 2.15 µM | 13.1 µM | 2.78 µM | 11.7 µM | 3.55 µM | 23.6 µM | 11.2 µM | > 50 µM | 2.03 µM | > 50 µM | 1.86 µM | 10.2 µM
6 | Cn1cc(C2=C(c3cccc(Cl)c3)C(=O)NC2=O)c2ccccc21 | > 25 µM | > 25 µM | 12.3 µM | > 25 µM | 13.9 µM | > 25 µM | > 25 µM | > 25 µM | 8.03 µM | 23 µM | > 25 µM | > 25 µM | 18.3 µM | > 25 µM | 7.28 µM | > 25 µM | 12.6 µM | > 25 µM | 5.65 µM | 14.4 µM
7 | CCOC(=O)Nc1ccc2nc(Sc3ccc(Cl)cc3)sc2c1 | 8.66 µM | > 100 µM | 5.09 µM | > 100 µM | 0.358 µM | > 32.9 µM | 11.6 µM | 46.3 µM | 1.66 µM | 24.6 µM | 2.92 µM | 22.1 µM | 4.27 µM | > 100 µM | 7.25 µM | 97.9 µM | 0.423 µM | > 100 µM | 1.45 µM | 19 µM
8 | Cc1cncc2cccc(S(=O)(=O)N3CCCNC[C@@H]3C)c12 | 4.91 µM | > 81.8 µM | 48.8 µM | > 100 µM | 3.55 µM | > 91.2 µM | 4.04 µM | 35.9 µM | > 93.4 µM | > 100 µM | 3.17 µM | > 56.7 µM | 44.3 µM | > 100 µM | 1.51 µM | > 100 µM | 50 µM | > 100 µM | 2.85 µM | 18.8 µM
9 | C/C(=C\COc1ccc2ccc(=O)oc2c1)CCC(=O)C(C)(C)O | – | > 100 µM | – | > 100 µM | – | 47.4 µM | – | 74.9 µM | – | 61.2 µM | – | 48.5 µM | – | > 100 µM | – | 78.2 µM | – | 46.8 µM | – | 44.4 µM
10 | S=C1NC2=C(CCOc3c2ccc2ccccc32)C(c2ccc(Cl)cc2)N1 (stereo not given) | 39.2 µM | > 100 µM | 52.8 µM | > 100 µM | 30.6 µM | > 100 µM | 25.8 µM | 91.9 µM | 54.3 µM | > 100 µM | 20.8 µM | 56.9 µM | 35.8 µM | > 100 µM | 21.5 µM | 73.5 µM | 42.9 µM | > 100 µM | 24.5 µM | > 100 µM
11 | N#CCCCCCn1c2ccccc2c2c3c(c4c5ccccc5[nH]c4c21)C(=O)N(O)C3=O | 0.957 µM | 48.1 µM | 1.12 µM | 3.89 µM | 0.434 µM | > 100 µM | 1.84 µM | 9.53 µM | 0.595 µM | 2.51 µM | 0.632 µM | 2.05 µM | 1.39 µM | 4.51 µM | 4.77 µM | > 100 µM | 1.07 µM | > 100 µM | 1.85 µM | 4.36 µM
